Experimental data published in patent US20220175766A1, “COMPOSITIONS AND METHODS OF TREATMENT” (GB004, Inc., priority 2019, published 2022).
≈ marks a conversion by molar mass, not a printed value. Read-outs that look alike come from different tables or passages of the source.

Experiments:
[1] = Phase 1a multiple ascending dose study: Compound 1 in fecal samples; format: in vivo, human; details: for dose excreted: human, feces, oral, read-out: Mean recovery of Compound 1 in feces, range across cohorts
Protocol: Fecal samples were collected, when possible, over 24 hours (0-24 hours) post administration on Day 1 and Day 7; the absolute amount of Compound 1 measured (mg) is shown Table 48.

EPO and VEGF = assay: Phase 1a multiple ascending dose study: circulating EPO and VEGF levels in serum; format: in vivo, human; details: serum samples
EPO or VEGF = assay: Phase 1a multiple dose tablet study (Example 26): EPO and VEGF change from baseline to Day 7; set-up: species or system human; details: in vivo
[2] = Phase 1a single ascending dose study (oral solution): safety and tolerability; format: in vivo, human; details: all doses evaluated (20-240 mg) in 50 mL or 100 mL vehicle
Text: The primary objective of the study was to assess the safety and tolerability of ascending dose levels of Compound 1 after single oral dose administration. The safety endpoints included AE incidence, clinically significant changes in vital signs, ECG parameters, clinical laboratory tests and physical examination.
All subjects underwent a complete physical examination and their medical history and demographic information collected. The body systems evaluated included general appearance, skin, lymphatic, head and neck, EENT (eyes, ears, nose, and throat), chest and lungs, cardiovascular, abdomen, extremities, musculoskeletal and neuromuscular. Vital signs were measured. Blood pressure, pulse, respiratory rate and oral temperature; were taken. Blood and urine samples were collected at screening, pre-baseline, baseline, during the treatment period, and Day 8 follow-up visit; the following clinical laboratory evaluations were conducted. […]

[3] = Phase 1a multiple ascending dose study: Compound 1 concentration in colon tissue (colonic mucosal biopsy); format: in vivo, human
Text: Colonic mucosal biopsy samples were acquired.

[4] = Compound 1 pH-solubility at 22° C.; format: physicochemical; details: for solubility: aqueous buffer, thermodynamic from solid
Text: The solubility of Compound 1 at various pH's was investigated.

[5] = Biopharmaceutical Classification System (BCS) classification; format: physicochemical; details: low solubility/dissolution rate and high permeability
Text: Compound 1 can be classified as a BCS Class 2 compound (according to the Biopharmaceutical Classification System as defined by the “Guidance for Industry: Waiver of In Vivo Bioavailability and Bioequivalence studies for immediate release solid oral dosage forms based on a Biopharmaceutics Classification System”) which indicates it has a low solubility/dissolution rate and high permeability.

[6] = system: hypoxia inducible factor (HIF)-inducible gene expression; assay: Phase 1a multiple ascending dose study: HIF-inducible gene expression in colonic mucosal biopsy samples; format: in vivo, human
Protocol: Colonic mucosal biopsy samples were also assessed for hypoxia inducible factor (HIF)-inducible gene expression. For Tier 1 association tests, two significant gene were detected (HMOX1, CA9).

pKa of Compound 1 = format: physicochemical; details: two basic groups
Text: The pKa value expresses the strength of acids and base, i.e. the tendency for an acid to lose a proton or a base to accept a proton (Bronsted J. N. Rec. trav. Chim. (47), 718, 1923) and the protonation and deprotonation of the basic groups in the compound has a marked effect upon the solubility of Compound 1 in aqueous media. Consequently, the solubility of Compound 1 is highly dependent upon pH.

[7] = Phase 1a single ascending dose study (oral solution): plasma pharmacokinetics; format: in vivo; details: male, human; for AUC(0-t): read-out: AUClast, mean (SD); for Cmax: read-out: Cmax, mean (SD)
Protocol: Compound 1 was administered as the HCl-salt (prepared analogously to Example 2.1).
Placebo dosing solutions were identical to active, except without Compound 1. […] Since HPβCD concentration remained constant, subjects in Cohort 5 received twice the amount of HPβCD relative to subjects in Cohorts 1 to 4. Dosing, including consumption of rinse water, was completed within 3 minutes, administered in the morning after an overnight fast, and maintained for up to 4 hours after dosing.
The secondary objective was to characterize the single-dose pharmacokinetic (PK) parameters of Compound 1 after ascending doses.
Blood samples were collected at baseline, day 1 (0.5, 1, 2, 3, 4, 6, 8, 12, 16, 24 hours post dose), day 2 (30, 36 and 48 hours post dose) and day 8 follow-up visit. Analysis of plasma samples was performed using a validated Liquid Chromatography—Mass Spectrometry and Liquid Chromatography—Tandem Mass Spectrometry (LC-MS/MS) method.

[8] = 20 mg, Cohort 1, 20 mg single oral dose (0.4 mg/mL, 50 mL)
[9] = 60 mg, Cohort 2, 60 mg single oral dose (1.2 mg/mL, 50 mL)
[10] = 120 mg, Cohort 3, 120 mg single oral dose (2.4 mg/mL, 50 mL)
[11] = 240 mg, Cohort 4, 240 mg single oral dose (4.8 mg/mL, 50 mL)
[12] = 240 mg, Cohort 5, 240 mg single oral dose (2.4 mg/mL, 100 mL)

Which “Mean observed amount of Compound 1 in fecal samples” value (shortened to “Mean observed amount”) ([1]; Cohort 1, 60 mg once daily, DAY 7, 0-24 hours) does the source give for `CC(C)(C)OC(=O)N1CCN(Cc2ccn(Cc3ccc(Cl)cc3)c(=O)c2O)CC1` [Compound 1, tert-butyl 4-((1-(4-chlorobenzyl)-3-hydroxy-2-oxo-1,2-dihydropyridin-4-yl)methyl)piperazine-1-carboxylate] here?
The value was 22.0 mg.

And the “Mean observed amount” value ([1]; Cohort 1, 60 mg, DAY 1, 0-24 hours)?
Its value is 11.8 mg.

And the “Mean observed amount” value ([1]; Cohort 2, 120 mg once daily, DAY 7, 0-24 hours)?
Its value is 37.5 mg.

What about the “Mean observed amount” value ([1]; Cohort 2, 120 mg, DAY 1, 0-24 hours) of the same molecule?
Its value is 5.9 mg.

What about the “Mean observed amount” value ([1]; Cohort 3, 240 mg once daily, DAY 7, 0-24 hours) of the same molecule?
Its value is 125.3 mg.

And the “Mean observed amount” value ([1]; Cohort 3, 240 mg, DAY 1, 0-24 hours)?
The value was 46.5 mg.

And the “Mean observed amount” value ([1]; Cohort 4, 120 mg once daily, DAY 7, 0-24 hours)?
The value was 33.9 mg.

And the “Mean observed amount” value ([1]; Cohort 4, 120 mg, DAY 1, 0-24 hours)?
The value was 14.4 mg.

What about the “Mean observed amount” value ([1]; Cohort 5, 60 mg once daily, DAY 7, 0-24 hours) of the same molecule?
The value was 11.6 mg.

And the “Mean observed amount” value ([1]; Cohort 5, 60 mg, DAY 1, 0-24 hours)?
Its value is 13.0 mg.

And the “Mean fecal concentrations of Compound 1, range across cohorts” value ([1]; Day 1)?
The value was 40 to 225 µg/g.

What about the “Mean fecal concentrations of Compound 1, range across cohorts” value ([1]; Day 7) of the same molecule?
The value was 95 to 506 µg/g.

And the dose excreted ([1]; Day 1)?
The dose excreted was 5 to 22%.

And the dose excreted ([1]; Day 7)?
Its dose excreted is 19 to 52%.

What about the “Effects on circulating EPO and VEGF levels” value (EPO and VEGF) of the same molecule?
The value was “no Compound 1-related effects”.

And the “Effects on EPO or VEGF from baseline to Day 7 compared to placebo” value (EPO or VEGF)?
Its value is “no consistent or dose-related effects”.

What about the Safety and tolerability [2] of the same molecule?
The Safety and tolerability was “safe and well tolerated”.

And the “Compound 1 Concentration in Colon Tissue, Median (Range)” value (“Compound 1 Concentration” below) ([3]; Cohort 2, 120 mg)?
The value was 10.75 (0-1150) ng/g.

What about the “Compound 1 Concentration” value ([3]; Cohort 3, 240 mg) of the same molecule?
The value was 23.50 (0-301) ng/g.

And the “Compound 1 Concentration” value ([3]; Cohort 4, 120 mg)?
The value was 127.47 (0-3330) ng/g.

What about the “Compound 1 Concentration” value ([3]; Cohort 5, 60 mg) of the same molecule?
The value was 102.30 (0-1360) ng/g.

And the “Compound 1 colon tissue levels (in words)” value ([3]; colonic mucosal biopsy samples)?
Its value is “increase in a dose-dependent manner”.

What about the solubility ([4]; TRIS buffer, pH 8 (TRIS 25 mM, l = 0.1), pH 8.0, 22° C.) of the same molecule?
The solubility was 0.69 µg/mL (≈ 1.59 µM).

What about the “Solubility (in words)” value ([4]; above pH 4) of the same molecule?
Its value is “practically insoluble”.

And the solubility ([4]; 0.1M NaOH, pH 12.6, 22° C.)?
The solubility was 890 µg/mL (≈ 2050 µM).

What about the “Solubility (in words)” value ([4]; at pH 1) of the same molecule?
Its value is “soluble”.

What about the “Solubility (in words)” value ([4]; at pH 6.8) of the same molecule?
Its value is “totally insoluble”.

What about the solubility ([4]; citrate buffer, pH 3 (Citrate 25 mM, l = 0.1), pH 2.9, 22° C.) of the same molecule?
Its solubility is 570 µg/mL (≈ 1310 µM).

What about the solubility ([4]; citrate buffer, pH 4 (Citrate 25 mM, l = 0.1), pH 3.9, 22° C.) of the same molecule?
Its solubility is 94 µg/mL (≈ 217 µM).

And the solubility ([4]; citrate buffer, pH 5 (Citrate 25 mM, l = 0.1), pH 5.0, 22° C.)?
Its solubility is 9.8 µg/mL (≈ 22.6 µM).

And the solubility ([4]; glycine buffer, pH 10 (Glycine 25 mM, l = 0.1), pH 9.9, 22° C.)?
The solubility was 9.9 µg/mL (≈ 22.8 µM).

And the solubility ([4]; phosphate buffer, pH 6.5 (Phosphate 25 mM, l = 0.1), pH 6.5, 22° C.)?
The solubility was 1 µg/mL (≈ 2.3 µM).

And the BCS classification [5]?
The BCS classification was “BCS Class 2”.

And the Significant genes detected ([6]; Tier 1 association tests)?
The Significant genes detected was “HMOX1, CA9”.

What about the Significant genes detected ([6]; Tier 2 analysis) of the same molecule?
Its Significant genes detected is “NDRG1, LCN2, BNIP3, TFF3, AKR1C3, BIRC3, TMEM45A and HILPDA”.

And the pKa (pKa of Compound 1)?
The pKa was 6.5.

What about the Tmax [7, 8] of the same molecule?
Its Tmax is 30 min.

And the AUC(0-t) [7, 8]?
The AUC(0-t) was 10.7 ng·h/mL.

And the Cmax [7, 8]?
Its Cmax is 2.06 ng/mL.

And the Tmax [7, 9]?
Its Tmax is 30 min.

And the AUC(0-t) [7, 9]?
Its AUC(0-t) is 14.2 ng·h/mL.

And the Cmax [7, 9]?
Its Cmax is 7.71 ng/mL.

And the Tmax [7, 10]?
Its Tmax is 30 min.

And the AUC(0-t) [7, 10]?
Its AUC(0-t) is 32.3 ng·h/mL.

What about the Cmax [7, 10] of the same molecule?
The Cmax was 12.4 ng/mL.

What about the Tmax [7, 11] of the same molecule?
The Tmax was 30 min.

What about the AUC(0-t) [7, 11] of the same molecule?
Its AUC(0-t) is 41.3 ng·h/mL.

What about the Cmax [7, 11] of the same molecule?
Its Cmax is 25 ng/mL.

What about the Tmax [7, 12] of the same molecule?
The Tmax was 30 min.

And the AUC(0-t) [7, 12]?
Its AUC(0-t) is 79.5 ng·h/mL.

And the Cmax [7, 12]?
Its Cmax is 30.7 ng/mL.

And the Tmax ([7]; single oral solution dose, healthy male subjects)?
The Tmax was under 60 min.

What about the Tmax ([7]; single oral solution formulation dose) of the same molecule?
Its Tmax is 30 min.
